# Test results: ChEMBL document CHEMBL5678804 (Cancer Cell, 2011)
# The source made the active and inactive calls. No cut-off for these calls is given here.
# Assays:
# Ephrin type-B receptor 3 = Ephrin type-B receptor 3 (Homo sapiens, UniProt P54753); experiment: Inhibition of human wild type EPHB3 using PolyEY as substrate preincubated for 2 hrs followed by ATP addition and measured every 2 mins for […] by spectrophotometric analysis
# [1] = biological target: Protein kinase C alpha type (Homo sapiens, UniProt P17252); experiment: Inhibition of human wild type PKC alpha using 3xChocktide-PKC(19to 31) as substrate preincubated for 2 hrs followed by ATP addition and measured every 2 mins for […] by spectrophotometric analysis
# Mononuclear cell line = experiment: Inhibition of myeloid colony formation in CML patient derived human Mononuclear cell line; type: functional, cell-based; settings: dose 50-200 nM
# [2] = biological target: Serine/threonine-protein kinase NLK (Homo sapiens, UniProt Q9UBE8); experiment: Inhibition of human wild type NLK using RBER-GSK3([…]-[…]) as substrate preincubated for 2 hrs followed by ATP addition and measured every 2 mins for […] by spectrophotometric analysis
# Chain of Serine/threonine-protein kinase NLK (Q9UBE8 whole entry): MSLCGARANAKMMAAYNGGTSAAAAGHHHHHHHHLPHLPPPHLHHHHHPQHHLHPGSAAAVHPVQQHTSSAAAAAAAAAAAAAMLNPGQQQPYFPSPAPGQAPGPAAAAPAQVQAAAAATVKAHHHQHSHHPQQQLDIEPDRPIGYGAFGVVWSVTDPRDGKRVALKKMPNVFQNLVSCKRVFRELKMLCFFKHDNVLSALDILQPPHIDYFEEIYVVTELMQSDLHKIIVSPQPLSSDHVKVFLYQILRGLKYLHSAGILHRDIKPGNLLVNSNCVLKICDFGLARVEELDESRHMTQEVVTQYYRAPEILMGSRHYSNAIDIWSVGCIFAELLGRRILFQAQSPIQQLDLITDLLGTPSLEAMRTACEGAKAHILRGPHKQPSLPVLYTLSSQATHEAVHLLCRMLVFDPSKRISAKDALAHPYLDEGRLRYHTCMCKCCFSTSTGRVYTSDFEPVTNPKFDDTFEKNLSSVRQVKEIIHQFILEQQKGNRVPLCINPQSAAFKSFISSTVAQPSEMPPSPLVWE
# [3] = biological target: Mitogen-activated protein kinase 14 (Homo sapiens, UniProt Q16539); experiment: Inhibition of human wild type p38 alpha using ATF2 as substrate preincubated for 2 hrs followed by ATP addition and measured every 2 mins for […] by spectrophotometric analysis
# [4] = biological target: Glycogen synthase kinase-3 alpha (Homo sapiens, UniProt P49840); experiment: Inhibition of human wild type GSK3 alpha using SUPT5 754to 837 as substrate preincubated for 2 hrs followed by ATP addition and measured every 2 mins for […] by spectrophotometric analysis
# [5] = biological target: Homeodomain-interacting protein kinase 4 (Homo sapiens, UniProt Q8NE63); experiment: Inhibition of human wild type HIPK4 using RBER-IRStide as substrate preincubated for 2 hrs followed by ATP addition and measured every 2 mins for […] by spectrophotometric analysis
# [6] = biological target: Beta-adrenergic receptor kinase 1 (Homo sapiens, UniProt P25098); experiment: Inhibition of human wild type GRK2 using Casein as substrate preincubated for 2 hrs followed by ATP addition and measured every 2 mins for […] by spectrophotometric analysis
# [7] = biological target: Dual specificity mitogen-activated protein kinase kinase 1 (Homo sapiens, UniProt Q02750); experiment: Inhibition of human wild type MEK1 using ERK2-KR as substrate preincubated for 2 hrs followed by ATP addition and measured every 2 mins for […] by spectrophotometric analysis
# [8] = biological target: Signal transducer and activator of transcription 5A (Homo sapiens) (UniProt P42229); experiment: Inhibition of STAT5 phosphorylation in Ph+ B-ALL patient with […] mutation derived human Leukemia cell at 50 to 1000 nM by immunoblot analysis; type: cell-based; settings: dose 50-1000 nM
# [9] = biological target: Vascular endothelial growth factor receptor 3 (Homo sapiens, UniProt P35916); experiment: Inhibition of human wild type FLT4 using PolyEY as substrate preincubated for 2 hrs followed by ATP addition and measured every 2 mins for […] by spectrophotometric analysis
# [10] = biological target: Mitogen-activated protein kinase kinase kinase 20 (Homo sapiens, UniProt Q9NYL2); experiment: Inhibition of human wild type ZAK using MBP as substrate preincubated for 2 hrs followed by ATP addition and measured every 2 mins for […] by spectrophotometric analysis
# [11] = biological target: NUAK family SNF1-like kinase 2 (Homo sapiens, UniProt Q9H093); experiment: Inhibition of human wild type SNARK using Histon H2B as substrate preincubated for 2 hrs followed by ATP addition and measured every 2 mins for […] by spectrophotometric analysis
# [12] = biological target: Mitogen-activated protein kinase 10 (Homo sapiens, UniProt P53779); experiment: Inhibition of human wild type JNK3 using ATF2 as substrate preincubated for 2 hrs followed by ATP addition and measured every 2 mins for […] by spectrophotometric analysis
# Chain of Mitogen-activated protein kinase 10 (P53779 whole entry): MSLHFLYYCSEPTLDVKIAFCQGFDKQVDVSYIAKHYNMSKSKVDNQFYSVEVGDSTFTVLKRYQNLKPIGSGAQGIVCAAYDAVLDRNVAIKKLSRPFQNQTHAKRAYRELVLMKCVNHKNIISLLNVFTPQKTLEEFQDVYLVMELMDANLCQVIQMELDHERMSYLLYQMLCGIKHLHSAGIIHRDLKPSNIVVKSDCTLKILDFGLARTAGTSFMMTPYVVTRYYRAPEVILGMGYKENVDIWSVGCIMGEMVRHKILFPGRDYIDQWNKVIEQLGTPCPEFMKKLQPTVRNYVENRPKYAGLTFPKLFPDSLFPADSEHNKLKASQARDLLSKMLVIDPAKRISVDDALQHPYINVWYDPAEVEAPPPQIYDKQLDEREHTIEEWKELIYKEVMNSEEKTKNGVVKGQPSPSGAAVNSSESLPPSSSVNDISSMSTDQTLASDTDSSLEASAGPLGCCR
# Myotonin-protein kinase = Myotonin-protein kinase (Homo sapiens, UniProt Q09013); experiment: Inhibition of human wild type DMPK using bio-4xCHKT as substrate preincubated for 2 hrs followed by ATP addition and measured every 2 mins for […] by spectrophotometric analysis
# [13] = biological target: Mitogen-activated protein kinase kinase kinase 5 (Homo sapiens, UniProt Q99683); experiment: Inhibition of human wild type ASK1 using RBER-GSK3([…] to […]) as substrate preincubated for 2 hrs followed by ATP addition and measured every 2 mins for […] by spectrophotometric analysis
# Chain of Mitogen-activated protein kinase kinase kinase 5 (Q99683 whole entry): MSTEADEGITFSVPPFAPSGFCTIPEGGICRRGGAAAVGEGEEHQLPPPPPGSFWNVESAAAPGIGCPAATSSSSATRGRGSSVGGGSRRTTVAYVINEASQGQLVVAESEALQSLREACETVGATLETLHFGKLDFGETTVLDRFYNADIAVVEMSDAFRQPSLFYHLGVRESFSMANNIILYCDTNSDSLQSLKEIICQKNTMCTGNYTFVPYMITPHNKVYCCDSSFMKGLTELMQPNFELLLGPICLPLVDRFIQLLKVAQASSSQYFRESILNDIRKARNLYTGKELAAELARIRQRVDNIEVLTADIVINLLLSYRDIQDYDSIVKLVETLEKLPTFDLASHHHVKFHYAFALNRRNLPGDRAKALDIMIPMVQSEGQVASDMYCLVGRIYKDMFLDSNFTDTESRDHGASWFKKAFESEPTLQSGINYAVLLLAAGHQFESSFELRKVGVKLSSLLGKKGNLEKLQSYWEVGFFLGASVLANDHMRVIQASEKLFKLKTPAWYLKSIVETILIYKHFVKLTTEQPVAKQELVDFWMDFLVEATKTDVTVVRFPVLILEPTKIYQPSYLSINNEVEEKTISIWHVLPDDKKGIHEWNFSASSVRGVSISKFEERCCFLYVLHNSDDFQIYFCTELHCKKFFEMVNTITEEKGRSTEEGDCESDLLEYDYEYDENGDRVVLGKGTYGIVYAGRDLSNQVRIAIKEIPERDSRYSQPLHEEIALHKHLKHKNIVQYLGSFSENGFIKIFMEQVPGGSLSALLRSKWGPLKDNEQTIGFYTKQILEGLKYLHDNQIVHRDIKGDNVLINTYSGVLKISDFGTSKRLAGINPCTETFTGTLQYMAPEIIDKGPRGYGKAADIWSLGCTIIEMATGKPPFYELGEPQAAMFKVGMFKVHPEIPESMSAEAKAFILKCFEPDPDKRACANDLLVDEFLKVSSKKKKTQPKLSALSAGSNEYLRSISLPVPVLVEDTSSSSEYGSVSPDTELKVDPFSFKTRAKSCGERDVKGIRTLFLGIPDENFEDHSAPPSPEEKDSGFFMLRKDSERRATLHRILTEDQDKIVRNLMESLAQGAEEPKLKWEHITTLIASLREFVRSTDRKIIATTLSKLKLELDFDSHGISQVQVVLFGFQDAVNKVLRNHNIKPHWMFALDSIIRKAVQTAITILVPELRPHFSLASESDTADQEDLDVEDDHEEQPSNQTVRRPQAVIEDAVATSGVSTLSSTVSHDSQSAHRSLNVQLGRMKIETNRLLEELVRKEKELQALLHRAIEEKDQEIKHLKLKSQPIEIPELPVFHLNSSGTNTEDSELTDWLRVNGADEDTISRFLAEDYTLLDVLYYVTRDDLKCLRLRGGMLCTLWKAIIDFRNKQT
# [14] = biological target: Death-associated protein kinase 3 (Homo sapiens, UniProt O43293); experiment: Inhibition of human wild type ZIPK using RBER-GSK3([…] to […]) as substrate preincubated for 2 hrs followed by ATP addition and measured every 2 mins for […] by spectrophotometric analysis
# [15] = biological target: Proto-oncogene tyrosine-protein kinase ROS (Homo sapiens, UniProt P08922); experiment: Inhibition of human wild type ROS using Poly(Ala,Glu,Lys,Tyr)6:2:5:1 as substrate preincubated for 2 hrs followed by ATP addition and measured every 2 mins for […] by spectrophotometric analysis
# [16] = biological target: Serine/threonine-protein kinase 33 (Homo sapiens, UniProt Q9BYT3); experiment: Inhibition of human wild type STK33 using RBER-CHKtide as substrate preincubated for 2 hrs followed by ATP addition and measured every 2 mins for […] by spectrophotometric analysis
# [17] = biological target: Tyrosine-protein kinase TXK (Homo sapiens, UniProt P42681); experiment: Inhibition of human wild type TXK using RBER-CHKtide as substrate preincubated for 2 hrs followed by ATP addition and measured every 2 mins for […] by spectrophotometric analysis
# Ephrin type-B receptor 4 = Ephrin type-B receptor 4 (Homo sapiens, UniProt P54760); experiment: Inhibition of human wild type EPHB4 using PolyEY as substrate preincubated for 2 hrs followed by ATP addition and measured every 2 mins for […] by spectrophotometric analysis
# Chain of Ephrin type-B receptor 4 (P54760 whole entry): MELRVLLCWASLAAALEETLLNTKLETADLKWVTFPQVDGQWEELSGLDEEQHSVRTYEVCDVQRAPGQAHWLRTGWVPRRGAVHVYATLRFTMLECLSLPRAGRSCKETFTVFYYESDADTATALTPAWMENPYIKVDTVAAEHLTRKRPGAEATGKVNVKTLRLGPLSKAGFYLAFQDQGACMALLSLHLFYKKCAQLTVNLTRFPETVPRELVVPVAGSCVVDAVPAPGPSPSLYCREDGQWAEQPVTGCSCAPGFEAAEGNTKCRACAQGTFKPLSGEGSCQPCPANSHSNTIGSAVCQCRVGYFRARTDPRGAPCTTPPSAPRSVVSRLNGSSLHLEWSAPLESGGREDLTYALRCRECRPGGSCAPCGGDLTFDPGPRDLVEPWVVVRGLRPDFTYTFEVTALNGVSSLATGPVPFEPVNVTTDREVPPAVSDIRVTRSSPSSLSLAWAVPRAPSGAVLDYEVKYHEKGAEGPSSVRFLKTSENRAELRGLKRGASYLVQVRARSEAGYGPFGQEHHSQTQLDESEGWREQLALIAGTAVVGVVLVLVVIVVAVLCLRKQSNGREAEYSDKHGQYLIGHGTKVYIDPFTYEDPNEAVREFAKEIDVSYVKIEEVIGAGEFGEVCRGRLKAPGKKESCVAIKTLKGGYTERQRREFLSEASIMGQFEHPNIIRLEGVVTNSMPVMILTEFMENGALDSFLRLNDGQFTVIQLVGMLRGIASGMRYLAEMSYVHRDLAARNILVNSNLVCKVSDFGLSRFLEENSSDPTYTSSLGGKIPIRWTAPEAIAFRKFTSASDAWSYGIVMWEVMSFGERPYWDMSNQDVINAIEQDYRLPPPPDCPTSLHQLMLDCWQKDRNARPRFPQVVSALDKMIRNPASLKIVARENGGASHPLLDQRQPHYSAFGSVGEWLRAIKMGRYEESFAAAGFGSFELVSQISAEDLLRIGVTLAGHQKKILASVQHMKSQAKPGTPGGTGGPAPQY
# [18] = biological target: Mitogen-activated protein kinase 1 (Homo sapiens, UniProt P28482); experiment: Inhibition of human wild type ERK2 using RBER-CHKtide as substrate preincubated for 2 hrs followed by ATP addition and measured every 2 mins for […] by spectrophotometric analysis
# [19] = biological target: Insulin-like growth factor 1 receptor (Homo sapiens, UniProt P08069); experiment: Inhibition of human wild type IGF1R using PolyEY as substrate preincubated for 2 hrs followed by ATP addition and measured every 2 mins for […] by spectrophotometric analysis
# [20] = biological target: Testis-specific serine/threonine-protein kinase 2 (Homo sapiens, UniProt Q96PF2); experiment: Inhibition of human wild type TSSK2 using RBER-CHKtide as substrate preincubated for 2 hrs followed by ATP addition and measured every 2 mins for […] by spectrophotometric analysis
# [21] = biological target: Serine/threonine-protein kinase TBK1 (Homo sapiens, UniProt Q9UHD2); experiment: Inhibition of human wild type TBK1 using Casein as substrate preincubated for 2 hrs followed by ATP addition and measured every 2 mins for […] by spectrophotometric analysis
# Chain of Serine/threonine-protein kinase TBK1 (Q9UHD2 whole entry): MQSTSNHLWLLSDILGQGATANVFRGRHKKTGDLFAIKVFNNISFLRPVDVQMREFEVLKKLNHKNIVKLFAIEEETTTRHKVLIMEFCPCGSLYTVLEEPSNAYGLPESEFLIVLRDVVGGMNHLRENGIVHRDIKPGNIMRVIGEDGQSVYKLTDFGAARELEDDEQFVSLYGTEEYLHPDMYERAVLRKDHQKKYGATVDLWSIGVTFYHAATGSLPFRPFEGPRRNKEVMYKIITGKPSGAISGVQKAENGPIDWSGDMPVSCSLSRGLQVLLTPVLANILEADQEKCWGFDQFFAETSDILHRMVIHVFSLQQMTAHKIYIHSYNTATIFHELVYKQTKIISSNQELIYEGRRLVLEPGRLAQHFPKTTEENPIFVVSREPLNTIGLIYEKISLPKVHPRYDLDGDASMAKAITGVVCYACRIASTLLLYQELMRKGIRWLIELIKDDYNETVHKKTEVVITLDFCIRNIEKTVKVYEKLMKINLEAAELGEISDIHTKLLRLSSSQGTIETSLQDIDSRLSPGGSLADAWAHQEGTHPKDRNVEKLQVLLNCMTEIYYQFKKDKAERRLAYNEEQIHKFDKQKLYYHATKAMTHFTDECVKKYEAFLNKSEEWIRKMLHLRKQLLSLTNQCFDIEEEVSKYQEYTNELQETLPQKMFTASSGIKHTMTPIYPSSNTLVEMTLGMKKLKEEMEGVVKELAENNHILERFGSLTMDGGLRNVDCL
# Ephrin type-A receptor 7 = Ephrin type-A receptor 7 (Homo sapiens, UniProt Q15375); experiment: Inhibition of human wild type EPHA7 using PolyEY as substrate preincubated for 2 hrs followed by ATP addition and measured every 2 mins for […] by spectrophotometric analysis
# [22] = biological target: Macrophage colony-stimulating factor 1 receptor (Homo sapiens, UniProt P07333); experiment: Inhibition of human wild type FMS using PolyEY as substrate preincubated for 2 hrs followed by ATP addition and measured every 2 mins for […] by spectrophotometric analysis
# [23] = biological target: Dual specificity protein kinase CLK1 (Homo sapiens, UniProt P49759); experiment: Inhibition of human wild type CLK1 using autophos as substrate preincubated for 2 hrs followed by ATP addition and measured every 2 mins for […] by spectrophotometric analysis
# Chain of Ephrin type-B receptor 3 (P54753 whole entry): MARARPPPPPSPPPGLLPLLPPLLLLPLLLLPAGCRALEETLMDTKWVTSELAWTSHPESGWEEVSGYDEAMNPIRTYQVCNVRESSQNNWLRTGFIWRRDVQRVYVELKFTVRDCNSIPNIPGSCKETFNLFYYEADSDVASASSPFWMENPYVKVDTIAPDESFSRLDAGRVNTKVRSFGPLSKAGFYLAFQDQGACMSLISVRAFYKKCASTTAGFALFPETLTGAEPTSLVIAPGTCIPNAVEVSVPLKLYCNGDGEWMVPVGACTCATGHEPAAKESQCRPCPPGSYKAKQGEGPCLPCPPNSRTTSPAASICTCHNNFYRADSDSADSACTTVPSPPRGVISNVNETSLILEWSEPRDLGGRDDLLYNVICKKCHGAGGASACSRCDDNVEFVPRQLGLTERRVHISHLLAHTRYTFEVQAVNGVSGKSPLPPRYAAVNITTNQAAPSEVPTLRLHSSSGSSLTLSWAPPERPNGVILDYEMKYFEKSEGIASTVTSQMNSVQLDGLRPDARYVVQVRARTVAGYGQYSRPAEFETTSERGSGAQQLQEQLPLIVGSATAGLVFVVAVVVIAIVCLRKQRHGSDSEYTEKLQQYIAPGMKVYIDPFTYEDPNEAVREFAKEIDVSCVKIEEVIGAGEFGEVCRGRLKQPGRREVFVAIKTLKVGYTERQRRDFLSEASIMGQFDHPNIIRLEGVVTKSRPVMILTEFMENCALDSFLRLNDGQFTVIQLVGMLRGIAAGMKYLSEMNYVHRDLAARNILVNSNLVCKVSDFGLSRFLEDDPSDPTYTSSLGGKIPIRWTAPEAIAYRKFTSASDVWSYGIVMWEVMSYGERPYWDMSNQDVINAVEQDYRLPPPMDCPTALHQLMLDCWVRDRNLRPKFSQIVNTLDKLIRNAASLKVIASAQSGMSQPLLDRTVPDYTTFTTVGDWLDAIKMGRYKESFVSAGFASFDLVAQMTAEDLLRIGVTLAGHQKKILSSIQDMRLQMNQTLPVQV
smiles,measurement,setting,value
CNC(=O)c1cc(Oc2ccc(NC(=O)Nc3cc(C(C)(C)C)nn3-c3ccc4ncccc4c3)c(F)c2)ccn1 [REBASTINIB],IC50,Ephrin type-B receptor 3,> 1 µM
same,IC50,[1],> 1 µM
same,inhibition,Mononuclear cell line,Dose-Dependent Effect
same,IC50,[2],> 1 µM
same,IC50,[3],0.11 µM
same,IC50,[4],> 1 µM
same,IC50,[5],0.45 µM
same,IC50,[6],> 1 µM
same,IC50,[7],> 1 µM
same,inhibition,[8],Active
same,IC50,[9],0.24 µM
same,IC50,[10],0.09 µM
same,IC50,[11],> 1 µM
same,IC50,[12],> 1 µM
same,IC50,Myotonin-protein kinase,> 1 µM
same,IC50,[13],> 1 µM
same,IC50,[14],> 1 µM
same,IC50,[15],0.34 µM
same,IC50,[16],> 1 µM
same,IC50,[17],> 1 µM
same,IC50,Ephrin type-B receptor 4,0.064 µM
same,IC50,[18],> 1 µM
same,IC50,[19],> 1 µM
same,IC50,[20],> 1 µM
same,IC50,[21],> 1 µM
same,IC50,Ephrin type-A receptor 7,0.088 µM
same,IC50,[22],0.62 µM
same,IC50,[23],> 1 µM
